From patent publication US10670605B2, “Cysteine reactive probes and uses thereof” (The Scripps Research Institute, priority 2015, dated 2020)

Assays:
Assay in all cases: Competitive isoTOP-ABPP in situ (fragment-treated cells)
Type in all cases: cell-based
[1] = target: T1, cysteines in MDA-MB-231 and Ramos cells (Homo sapiens, UniProt Q9HA64)
T1 sequence (Q9HA64 1-309): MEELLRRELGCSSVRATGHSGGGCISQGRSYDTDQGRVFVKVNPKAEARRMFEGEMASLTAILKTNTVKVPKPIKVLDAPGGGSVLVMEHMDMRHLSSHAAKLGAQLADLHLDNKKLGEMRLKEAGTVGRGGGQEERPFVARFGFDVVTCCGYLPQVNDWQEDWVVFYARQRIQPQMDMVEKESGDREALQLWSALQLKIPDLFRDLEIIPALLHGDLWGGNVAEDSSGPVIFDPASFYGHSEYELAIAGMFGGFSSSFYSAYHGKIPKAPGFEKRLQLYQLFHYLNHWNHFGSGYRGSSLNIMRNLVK

[2] = target: T2, cysteines in MDA-MB-231 and Ramos cells (Homo sapiens, UniProt Q9BTE3); details: 200 μM, insitu
T2 sequence (Q9BTE3 1-642): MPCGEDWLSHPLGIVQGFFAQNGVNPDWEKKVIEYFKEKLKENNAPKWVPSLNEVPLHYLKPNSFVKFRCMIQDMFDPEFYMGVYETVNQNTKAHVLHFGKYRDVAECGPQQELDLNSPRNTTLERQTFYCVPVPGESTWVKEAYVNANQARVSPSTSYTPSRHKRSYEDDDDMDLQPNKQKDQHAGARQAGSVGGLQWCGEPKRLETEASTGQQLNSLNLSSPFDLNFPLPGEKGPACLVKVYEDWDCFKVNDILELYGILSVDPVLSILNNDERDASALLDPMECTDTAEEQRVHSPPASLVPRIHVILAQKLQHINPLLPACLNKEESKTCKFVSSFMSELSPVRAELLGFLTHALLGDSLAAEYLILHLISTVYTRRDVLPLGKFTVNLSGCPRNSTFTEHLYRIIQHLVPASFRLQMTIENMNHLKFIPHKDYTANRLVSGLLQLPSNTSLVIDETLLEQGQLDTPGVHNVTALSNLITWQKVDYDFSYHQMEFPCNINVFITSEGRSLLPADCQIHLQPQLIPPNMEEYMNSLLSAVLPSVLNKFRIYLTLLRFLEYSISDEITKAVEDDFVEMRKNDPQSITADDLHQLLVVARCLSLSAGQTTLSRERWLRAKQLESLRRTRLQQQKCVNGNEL

[3] = target: cysteines in MDA-MB-231 and Ramos cells (Homo sapiens, UniProt Q8N999); details: 200 μM, insitu, 231
Sequence of cysteines in MDA-MB-231 and Ramos cells (Homo sapiens, UniProt Q8N999) (Q8N999 whole entry): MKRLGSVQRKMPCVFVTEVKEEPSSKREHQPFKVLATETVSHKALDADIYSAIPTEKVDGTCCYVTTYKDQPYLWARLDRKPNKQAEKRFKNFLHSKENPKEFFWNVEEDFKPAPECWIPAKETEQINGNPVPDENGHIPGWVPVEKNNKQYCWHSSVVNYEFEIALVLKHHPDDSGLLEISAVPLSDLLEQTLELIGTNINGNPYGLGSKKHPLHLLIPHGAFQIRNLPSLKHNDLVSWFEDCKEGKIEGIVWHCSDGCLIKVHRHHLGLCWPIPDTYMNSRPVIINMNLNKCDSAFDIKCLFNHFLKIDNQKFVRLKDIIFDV

[4] = target: T3, cysteines in MDA-MB-231 and Ramos cells (Homo sapiens, UniProt Q9NUI1); details: for isoTOP-ABPP ratio Q9NUI1_C22: 200 μM, insitu, 231
T3 sequence (Q9NUI1 1-292): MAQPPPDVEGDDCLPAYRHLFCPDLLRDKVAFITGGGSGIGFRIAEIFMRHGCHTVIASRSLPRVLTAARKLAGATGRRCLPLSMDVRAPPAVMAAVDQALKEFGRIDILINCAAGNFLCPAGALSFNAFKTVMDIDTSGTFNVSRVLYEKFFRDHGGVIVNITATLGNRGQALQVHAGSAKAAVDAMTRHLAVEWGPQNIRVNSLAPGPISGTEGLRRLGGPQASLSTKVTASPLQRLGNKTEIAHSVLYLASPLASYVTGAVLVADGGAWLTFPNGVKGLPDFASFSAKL

[5] = target: T4, cysteines in MDA-MB-231 and Ramos cells (Homo sapiens, UniProt Q8N5L8); details: 200 μM, insitu, 231
T4 sequence (Q8N5L8 1-163): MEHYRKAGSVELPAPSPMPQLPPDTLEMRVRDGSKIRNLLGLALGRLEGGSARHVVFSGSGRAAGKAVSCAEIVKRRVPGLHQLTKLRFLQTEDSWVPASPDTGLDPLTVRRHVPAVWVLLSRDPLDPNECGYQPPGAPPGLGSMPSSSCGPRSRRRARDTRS

[6] = target: cysteines in MDA-MB-231 and Ramos cells (Homo sapiens, UniProt O95881); details: 200 μM, insitu, 231
Sequence of cysteines in MDA-MB-231 and Ramos cells (Homo sapiens, UniProt O95881) (O95881 27-172): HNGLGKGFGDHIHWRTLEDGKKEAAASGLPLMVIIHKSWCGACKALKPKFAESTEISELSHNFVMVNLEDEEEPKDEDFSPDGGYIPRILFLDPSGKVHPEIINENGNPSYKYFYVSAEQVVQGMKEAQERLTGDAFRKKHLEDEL

[7] = target: T5, cysteines in MDA-MB-231 and Ramos cells (Homo sapiens, UniProt P10398); details: 200 μM, insitu
T5 sequence (P10398 1-606): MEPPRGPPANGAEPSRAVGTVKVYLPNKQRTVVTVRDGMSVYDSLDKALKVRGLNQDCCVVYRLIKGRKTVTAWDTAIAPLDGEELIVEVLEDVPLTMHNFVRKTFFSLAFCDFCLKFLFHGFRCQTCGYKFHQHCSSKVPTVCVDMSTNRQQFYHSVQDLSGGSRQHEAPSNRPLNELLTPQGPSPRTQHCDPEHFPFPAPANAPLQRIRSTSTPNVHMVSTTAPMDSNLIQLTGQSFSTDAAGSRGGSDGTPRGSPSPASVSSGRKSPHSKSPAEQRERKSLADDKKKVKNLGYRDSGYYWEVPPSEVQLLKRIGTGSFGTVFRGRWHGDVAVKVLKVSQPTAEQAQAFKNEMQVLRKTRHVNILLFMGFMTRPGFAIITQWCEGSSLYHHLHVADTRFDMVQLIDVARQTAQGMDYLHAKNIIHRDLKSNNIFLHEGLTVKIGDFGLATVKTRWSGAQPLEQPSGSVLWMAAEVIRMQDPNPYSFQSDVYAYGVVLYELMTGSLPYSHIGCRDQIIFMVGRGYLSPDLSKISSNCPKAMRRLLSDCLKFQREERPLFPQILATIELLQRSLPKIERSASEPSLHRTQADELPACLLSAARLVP

[8] = target: T6, cysteines in MDA-MB-231 and Ramos cells (Homo sapiens, UniProt Q6QNY0); details: 200 μM, insitu
T6 sequence (Q6QNY0 1-202): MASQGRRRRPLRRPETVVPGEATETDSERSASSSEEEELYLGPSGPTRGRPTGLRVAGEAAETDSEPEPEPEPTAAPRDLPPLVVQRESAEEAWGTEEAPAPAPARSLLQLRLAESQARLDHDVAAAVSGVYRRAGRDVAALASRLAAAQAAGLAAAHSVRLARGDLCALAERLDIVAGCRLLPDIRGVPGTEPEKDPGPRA

[9] = target: cysteines in MDA-MB-231 and Ramos cells (Homo sapiens, UniProt Q92616); details: 200 μM, insitu
Sequence of cysteines in MDA-MB-231 and Ramos cells (Homo sapiens, UniProt Q92616) (Q92616 whole entry): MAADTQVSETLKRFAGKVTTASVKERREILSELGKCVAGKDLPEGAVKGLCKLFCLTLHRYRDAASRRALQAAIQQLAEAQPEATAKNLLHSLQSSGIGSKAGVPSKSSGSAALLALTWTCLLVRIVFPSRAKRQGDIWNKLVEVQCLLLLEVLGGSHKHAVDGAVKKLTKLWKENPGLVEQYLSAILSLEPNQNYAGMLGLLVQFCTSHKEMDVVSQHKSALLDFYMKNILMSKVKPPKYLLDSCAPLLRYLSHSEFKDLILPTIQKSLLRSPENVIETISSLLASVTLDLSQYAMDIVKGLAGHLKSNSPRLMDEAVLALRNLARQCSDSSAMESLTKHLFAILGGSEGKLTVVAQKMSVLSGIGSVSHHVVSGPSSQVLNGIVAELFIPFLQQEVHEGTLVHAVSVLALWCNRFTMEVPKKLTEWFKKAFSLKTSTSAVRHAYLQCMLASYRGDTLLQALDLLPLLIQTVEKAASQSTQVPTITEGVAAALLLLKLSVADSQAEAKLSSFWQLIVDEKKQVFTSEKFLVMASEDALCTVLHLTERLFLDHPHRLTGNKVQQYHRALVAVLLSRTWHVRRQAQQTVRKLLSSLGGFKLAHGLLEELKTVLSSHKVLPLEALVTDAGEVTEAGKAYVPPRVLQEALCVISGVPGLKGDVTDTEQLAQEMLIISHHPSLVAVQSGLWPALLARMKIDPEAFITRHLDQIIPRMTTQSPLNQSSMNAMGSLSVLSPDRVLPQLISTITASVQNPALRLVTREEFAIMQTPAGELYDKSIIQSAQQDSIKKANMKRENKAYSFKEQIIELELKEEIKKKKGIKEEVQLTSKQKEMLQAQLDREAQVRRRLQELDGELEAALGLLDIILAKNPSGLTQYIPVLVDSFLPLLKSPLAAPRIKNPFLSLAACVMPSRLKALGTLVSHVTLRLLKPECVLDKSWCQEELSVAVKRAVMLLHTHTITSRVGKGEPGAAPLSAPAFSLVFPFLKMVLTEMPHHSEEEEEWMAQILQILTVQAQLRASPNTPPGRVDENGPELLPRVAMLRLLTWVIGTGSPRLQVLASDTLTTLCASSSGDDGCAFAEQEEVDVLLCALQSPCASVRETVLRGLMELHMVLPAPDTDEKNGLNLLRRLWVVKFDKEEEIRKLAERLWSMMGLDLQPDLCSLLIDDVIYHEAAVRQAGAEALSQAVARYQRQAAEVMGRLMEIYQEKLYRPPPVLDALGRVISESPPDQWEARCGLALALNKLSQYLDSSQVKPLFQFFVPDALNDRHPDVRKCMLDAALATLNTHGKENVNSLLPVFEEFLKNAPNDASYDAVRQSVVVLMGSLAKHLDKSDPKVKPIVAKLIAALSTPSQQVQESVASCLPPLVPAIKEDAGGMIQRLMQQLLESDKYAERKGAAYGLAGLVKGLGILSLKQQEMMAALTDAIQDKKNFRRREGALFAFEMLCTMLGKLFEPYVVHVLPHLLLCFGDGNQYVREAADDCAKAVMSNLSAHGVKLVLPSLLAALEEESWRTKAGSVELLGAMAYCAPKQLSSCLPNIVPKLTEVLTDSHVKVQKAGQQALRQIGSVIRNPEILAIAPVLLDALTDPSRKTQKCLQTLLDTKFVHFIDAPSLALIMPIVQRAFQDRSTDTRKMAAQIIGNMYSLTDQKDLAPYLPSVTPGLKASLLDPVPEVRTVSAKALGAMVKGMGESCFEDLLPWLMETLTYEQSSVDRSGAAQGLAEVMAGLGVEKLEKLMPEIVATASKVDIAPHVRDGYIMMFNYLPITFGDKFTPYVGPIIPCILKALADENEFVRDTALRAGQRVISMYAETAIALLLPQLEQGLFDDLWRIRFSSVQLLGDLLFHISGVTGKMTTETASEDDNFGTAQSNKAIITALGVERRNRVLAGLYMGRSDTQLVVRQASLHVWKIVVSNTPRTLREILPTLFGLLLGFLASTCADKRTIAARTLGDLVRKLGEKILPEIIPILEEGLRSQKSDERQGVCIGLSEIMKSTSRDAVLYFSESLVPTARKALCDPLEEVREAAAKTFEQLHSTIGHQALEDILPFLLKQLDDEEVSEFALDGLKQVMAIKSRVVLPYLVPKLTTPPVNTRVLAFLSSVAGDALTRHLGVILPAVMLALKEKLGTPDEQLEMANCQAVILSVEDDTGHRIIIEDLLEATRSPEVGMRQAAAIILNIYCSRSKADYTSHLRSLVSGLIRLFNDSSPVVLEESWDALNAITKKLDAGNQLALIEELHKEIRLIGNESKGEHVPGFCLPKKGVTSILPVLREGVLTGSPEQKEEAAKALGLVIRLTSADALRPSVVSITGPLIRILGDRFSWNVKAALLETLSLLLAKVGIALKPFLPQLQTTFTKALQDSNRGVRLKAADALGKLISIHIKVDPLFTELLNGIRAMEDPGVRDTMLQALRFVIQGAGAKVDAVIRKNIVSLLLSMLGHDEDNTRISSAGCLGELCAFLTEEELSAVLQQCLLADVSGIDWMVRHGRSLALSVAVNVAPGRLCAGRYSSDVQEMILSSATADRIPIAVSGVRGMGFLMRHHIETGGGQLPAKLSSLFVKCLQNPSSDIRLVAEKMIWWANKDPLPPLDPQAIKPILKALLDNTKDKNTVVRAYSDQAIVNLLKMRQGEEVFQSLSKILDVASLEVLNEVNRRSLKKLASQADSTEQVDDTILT

With COc1ccc(C2CC(c3cccs3)=NN2C(=O)CCl)cc1 (stereo not shown) [compound 4] the “isoTOP-ABPP reactivity Q9HA64_C24 FN3KRP” value ([1]; 100 μM in situ 231) was 20.0.
In the case of CC1CCc2ccccc2N1C(=O)CCl (stereo not shown) [compound 45], the “isoTOP-ABPP ratio Q9BTE3_C325” value [2]; 231 is reported as 20.0, the “isoTOP-ABPP ratio Q8N999_C302” value [3] is reported as 20.0 and the “isoTOP-ABPP ratio Q9NUI1_C22” value [4] is reported as 17.0. The “isoTOP-ABPP ratio Q8N5L8_C131” value [5] was 7.3.
For O=C(CCl)NC(=O)NC12CC3CC(CC(C3)C1)C2 [compound 12], the “isoTOP-ABPP ratio, cysteine O95881_C66” value [6] was 20.0.
For O=C(CCl)N1CCN(S(=O)(=O)c2ccccc2F)CC1 [compound 10], the “isoTOP-ABPP ratio, cysteine P10398_C597” value [7]; 231 was 1.4.
With O=C(CCl)N1CCN(CC(=O)N2CCOCC2)CC1 [compound 29] the “isoTOP-ABPP ratio Q6QNY0_C168” value ([8]; ramos) was 1.6 and the “isoTOP-ABPP ratio P10398_C597” value ([7]; ramos) was 1.2.
With CC(C)CCOCCNC(=O)CCl [compound 27] the “isoTOP-ABPP ratio Q92616_C1692” value [9]; 231 was 0.5.
In the case of O=C(CCl)N1CCC(Cc2ccccc2)CC1 [compound 9], the “isoTOP-ABPP reactivity Q9HA64_C24 FN3KRP” value ([1]; 200 μM, insitu, 231) is reported as 20.0.
In the case of O=C(CCl)NC12CC3CC(CC(C3)C1)C2 [compound 21], the “isoTOP-ABPP ratio, cysteine Q9HA64_C24” value ([1]; 200 μM, insitu, 231) is reported as 0.6, the “isoTOP-ABPP ratio, cysteine P10398_C597” value [7]; 231 is reported as 0.7 and the “isoTOP-ABPP ratio, cysteine Q8N5L8_C131” value [5] is reported as 0.8.
With COc1ccc2c(c1)CCCN2C(=O)CCl [compound 2] the “isoTOP-ABPP reactivity Q9HA64_C24 FN3KRP” value ([1]; 200 μM, insitu, 231) was 6.3 and the “isoTOP-ABPP reactivity Q92616_C1692 GCN1L1” value [9]; 231 was 1.4.
With Cn1cc(S(=O)(=O)N2CCOCC2)cc1C(=O)NC(=O)CCl [compound 11] the “isoTOP-ABPP ratio, cysteine Q9NUI1_C22” value ([4]; 100 μM in situ 231) was 2.1.
In the case of COc1ccccc1OCCNC(=O)CCl [compound 28], the “isoTOP-ABPP ratio Q9BTE3_C325” value [2]; 231 is reported as 1.0 and the “isoTOP-ABPP ratio Q8N999_C302” value [3] is reported as 0.6.
For O=C(CCl)NCCc1c[nH]c2ccccc12 [compound 13], the “isoTOP-ABPP ratio, cysteine Q6QNY0_C168” value ([8]; ramos) was 1.2, the “isoTOP-ABPP ratio, cysteine Q92616_C1692” value ([9]; ramos) was 0.9 and the “isoTOP-ABPP ratio, cysteine P10398_C597” value ([7]; ramos) was 1.0. For the same compound, the “isoTOP-ABPP ratio, cysteine Q8N5L8_C131” value [5] was 1.2 and the “isoTOP-ABPP ratio, cysteine O95881_C66” value [6] was 20.0.
In the case of Cc1ccc(C=C(C#N)C(=O)NCCN2CCOCC2)cc1 [compound 41], the “isoTOP-ABPP ratio Q9BTE3_C325” value [2]; 231 is reported as 0.6, the “isoTOP-ABPP ratio Q8N999_C302” value [3] is reported as 0.3 and the “isoTOP-ABPP ratio Q92616_C1692” value [9]; 231 is reported as 0.7. For the same compound, the “isoTOP-ABPP ratio O95881_C66” value [6] was 1.0.
C=CC(=O)Nc1cc(F)c(N2CCN(C(=O)OC(C)(C)C)CC2)c(F)c1 [compound 38] was tested, and the “isoTOP-ABPP ratio Q9BTE3_C325” value [2]; 231 was 2.2, the “isoTOP-ABPP ratio Q6QNY0_C168” value [8]; 231 was 1.0 and the “isoTOP-ABPP ratio Q9HA64_C24” value ([1]; 200 μM, insitu, 231) was 1.7. For the same compound, the “isoTOP-ABPP ratio O95881_C66” value [6] was 1.0.
For C=CC(=O)N(Cc1cccnc1)c1cc(C(F)(F)F)cc(C(F)(F)F)c1 [compound 31], the “isoTOP-ABPP ratio Q9BTE3_C325” value [2]; 231 was 1.9, the “isoTOP-ABPP ratio Q9BTE3_C325” value ([2]; ramos) was 3.5 and the “isoTOP-ABPP ratio Q92616_C1692” value [9]; 231 was 0.6. For the same compound, the “isoTOP-ABPP ratio Q92616_C1692” value ([9]; ramos) was 2.0 and the “isoTOP-ABPP ratio Q9NUI1_C22” value [4] was 0.7.
